Ends that are not written are not given here.

The subject of series [1] is Staphylococcus aureus ATCC 35556. The format is cell-based. Particulars: highest concentration tested 15 μM. How it is done: Six different strains of bacteria were streaked on LB-Miller agar plates from a frozen glycerol stock derived from the original samples shipped from CGSC (Coli Genetic Stock Center, Yale University) or ATCC (American Type Culture Collection) (Escherichia coli D31 CGSC 5165 ([Burman, Nordstrom & Boman, 1968]), Staphylococcus aureus ATCC 35556. Pseudomonas aeruginosa PA-01 ATCC 47085, Acinetobacter baumannii ATCC 19606). For each of the strains a liquid overnight culture was prepared using a single colony into fresh LB broth and placed in a shaking incubator for ~ 18 hours at 37 C at 225 rpm. After the incubation period, a 1:200 dilution was made in fresh LB broth and then used for experimentation. Minimal Inhibitory Concentration (MIC) determinations were performed using mid-log phase bacteria diluted to 5 x 10^5 CFU/mL. Next, 90 μL of this diluted culture was then pipetted into a sterile 96-well plate that contains serially diluted aliquots of the peptide variants to consist of a total volume of 100 μL. This plate was then incubated for 18 hours at 37 C. Bacterial growth was determined by taking an OD600 measurement using a Spectramax M5 multimode plate reader post incubation. Minimal Bactericidal Concentration (MBC) was performed by taking 1 μL of the culture from the MIC plate and then pipetting it on to a fresh LB agar plate. After plating this culture, the plate was then incubated overnight at 37 C. MBC was determined by the growth or the lack of growth from each well on the agar plate.
The ability of L1 and the hydrophobic variants to act as antimicrobials was investigated using the Minimal Inhibitory Concentration (MIC) and Minimal Bactericidal Concentration (MBC) assays as previously described ([Wiegand, Hilpert & Hancock, 2008]). The MIC is determined as the lowest concentration of peptide required to inhibit bacterial growth in solution, while the MBC is the lowest concentration required to act in a bactericidal mechanism (as opposed to bacteriostatic) and is determined by plating MIC cultures on antimicrobial-free media. Peptides were screened against E. coli, S. aureus, A. baumannii, P. aeruginosa, B. subtilis, and K. pneumoniae.

A short description of series [2]: Peptide binding to lipid vesicles by Trp emission barycenter shift. The class given is physicochemical. As to conditions: anionic and zwitterionic SUVs titrated into 2 μM peptide in PBS; λex 280 nm, λem 300 to 400 nm. How it is done: To form small unilamellar vesicles (SUVs) sonication or ethanol dilution methods were implemented ([Caputo & London, 2019]). In all cases, lipid vesicle preparation was the same. Depending on the lipid composition, appropriate volumes of lipids in chloroform were mixed in a glass tube and then allowed to dry under N2 gas for 15 minutes. The lipid films were then placed in a vacuum desiccator and allowed to dry further under a vacuum for 1 hour. For vesicles formed through ethanol dilution methods, 10 μL of pure ethanol was added to the film, and then vortex until the dissipation of the film. While continuing to vortex, the appropriate amount of PBS was added. For vesicles formed using the method of sonication, PBS was added directly to the tube while being vortexed to create multilamellar vesicles (MLVs). […]
All fluorescence spectroscopy experiments were preformed using a JY-Horiba Fluoromax4 instrument. […]
Considering that the first step in the mechanism of action of many AMPs is the binding to the bacterial cell surface, binding to model lipid vesicles was performed. […] The impact of lipid composition on binding to model vesicles was investigated using a simple vesicle titration experiment in which Trp fluorescence was measured after addition of lipid vesicles. […]

For FFKEFWTKMKGAGKAFFGKFKGFF [L1F], the “MBC S. aureus” value in series [1] (1 μL of MIC plate culture on LB agar, overnight at 37 C) is 1.88 µM. Also, the “MIC S. aureus” value in series [1] (LB broth, 5 x 10^5 CFU/mL, 18 hours at 37 C, OD600) was found to be 0.94 µM. For the same sequence, in series [2], the “Extent of spectral shift (Trp emission barycenter) on binding lipid vesicles” value is given as ~ 14 nm.

These data come from publication PMC9114170, “Investigation of the Role of Hydrophobic Amino Acids on the Structure-Activity Relationship in the Antimicrobial Venom Peptide Ponericin L1” (The Journal of membrane biology, 2021).
